A short description of data set [1]: log P by HPLC on reversed-phase C18 columns (OECD Guideline 117). The format is physicochemical. Conditions: for chromatographic logP: reversed-phase C18 HPLC column.
Data set [2] concerns green peach aphid (Myzus persicae). Nature of the data set: Myzus persicae spray test on Chinese cabbage leaf discs. Type of data set: in vivo. The conditions noted are these: application rate 500 g/ha, after 6 days. The text has this: Discs of Chinese cabbage leaves (Brassica pekinensis) infested by all stages of the green peach aphid (Myzus persicae) are sprayed with an active ingredient formulation of the desired concentration.

Where [3] appears, read: pH 2.7, HPLC RP C18, acidic range pH 2.7, 0.1% aqueous formic acid/acetonitrile, read-out: logP[a].
Setting [4] is: pH 7.8, HPLC RP C18, neutral range pH 7.8, 0.001 molar aqueous ammonium hydrogencarbonate/acetonitrile, read-out: logP[b].
Where [5] appears, read: HPLC RP C18, acidic range pH 2.7, 0.1% aqueous formic acid/acetonitrile.
Setting [6] is: HPLC RP C18, neutral range pH 7.8, 0.001 molar aqueous ammonium hydrogencarbonate/acetonitrile.

Like-named read-outs stand apart in the source and are kept apart here.

Consider `CCOC(=O)c1cnn(-c2cccnc2)c1N` [(IIIa-1). HCOOH, ethyl 5-amino-1-(pyridin-3-yl)-1H-pyrazole-4-carboxylate], for which the chromatographic logP in data set [1] (setting [3]) was 1.18; in data set [1] (setting [4]) it was 1.27.
Consider `CCOC(=O)c1cnn(-c2cccnc2)c1N` [IIIa-1, Ethyl 5-amino-1-(pyridin-3-yl)-1H-pyrazole-4-carboxylate], for which the “logP[a]” value in data set [1] (setting [5]) is 1.10.
In the case of `CCOC(=O)c1cnn(-c2cncnc2)c1N` [IIIa-2, Ethyl 5-amino-1-(pyrimidin-5-yl)-1H-pyrazole-4-carboxylate], the chromatographic logP in data set [1] (setting [3]) is 1.16; in data set [1] (setting [4]), 1.12.
Taken in the same sequence, the figures for `CCOC(=O)c1cnn(-c2ccnnc2)c1N` [IIIa-3, Ethyl 5-amino-1-pyridazin-4-yl-pyrazole-4-carboxylate] were 1.12 and 1.12.
Taken in the same sequence, the figures for `CCOC(=O)c1cn(-c2cccnc2)nc1N` [IIIb-1, Ethyl 3-amino-1-(pyridin-3-yl)-1H-pyrazole-4-carboxylate] were 1.12 and 1.32.
The corresponding values for `CCOC(=O)c1cn(-c2cncnc2)nc1N` [IIIb-2, ethyl 3-amino-1-(pyrimidin-5-yl)-1H-pyrazole-4-carboxylate] are 1.12 and 1.08.
Take `CCOC(=O)c1cn(-c2ccnnc2)nc1N` [IIIb-3, ethyl 3-amino-1-pyridazin-4-yl-pyrazole-4-carboxylate]: the results for the chromatographic logP in data set [1] (setting [3]) and in data set [1] (setting [4]) were 0.9 and 0.94, respectively.
For `CCNC(=O)c1cnn(-c2cccnc2)c1N` [IIa-1-1, 5-Amino-N-ethyl-1-(pyridin-3-yl)-1H-pyrazole-4-carboxamide], the chromatographic logP came to 0.5 in data set [1] (setting [3]) and 0.56 in data set [1] (setting [4]).
The corresponding values for `CCNC(=O)c1cn(-c2cccnc2)nc1N` [IIb-1-1, 3-Amino-N-ethyl-1-(pyridin-3-yl)-1H-pyrazole-4-carboxamide] are 0.45 and 0.77.
For `CC(C)NC(=O)c1cn(-c2cccnc2)nc1N` [IIb-1-2, 3-Amino-N-isopropyl-1-(pyridin-3-yl)-1H-pyrazole-4-carboxamide], the chromatographic logP turned out to be 0.82 in data set [1] (setting [3]) and 1.05 in data set [1] (setting [4]).
The corresponding values for `CNC(=O)c1cnn(-c2cncnc2)c1N` [IIb-2-1, 5-Amino-N-methyl-1-(pyrimidin-5-yl)-1H-pyrazole-4-carboxamide] are 0.18 and -0.01.
As for `CC(C)NC(=O)c1cn(-c2ccnnc2)nc1N` [IIb-3-1, 3-Amino-N-isopropyl-1-pyridazin-4-yl-pyrazole-4-carboxamide], the chromatographic logP in data set [1] (setting [3]) and in data set [1] (setting [4]) was 0.74 throughout.
Turning to `C(=NNc1cccnc1)c1ccccc1` [VII-1, Benzaldehyde pyridin-3-yl hydrazone], the chromatographic logP in data set [1] (setting [3]) was determined as 0.86; in data set [1] (setting [4]) it was 2.22.
For `CCOC(=O)C(C#N)=CN(N=Cc1ccccc1)c1cccnc1` [VIII-1, Ethyl 3-[2-benzylidene-1-(pyridin-3-yl)hydrazino]-2-cyanoacrylate], the chromatographic logP in data set [1] (setting [3]) was found to be 2.54; in data set [1] (setting [4]), 2.48.
On to `CC(C)n1cnc2c(cnn2-c2cccnc2)c1=O` [compound 1], for which the “logP[a]” value in data set [1] (pH 2.7) was 1.31.
`O=c1c2cnn(-c3cccnc3)c2ncn1-c1ccccc1` [compound 2]: the “logP[a]” value in data set [1] (setting [5]) came to 1.57. Besides, the “efficacy (aphids killed)” value in data set [2] is 90%.
`O=c1c2cnn(-c3cccnc3)c2ncn1CC(F)(F)F` [compound 3]: the “logP[a]” value in data set [1] (pH 2.7) is on record as 1.48. In addition, in data set [2], the “efficacy (aphids killed)” value is recorded as 100%.
Consider `O=c1c2cnn(-c3cccnc3)c2ncn1-c1ccc(Cl)cc1` [compound 4], for which the “logP[a]” value in data set [1] (setting [5]) is recorded as 2.04. Besides, in data set [2], the “efficacy (aphids killed)” value is 90%.
As for `O=c1c2cnn(-c3cccnc3)c2ncn1Cc1ncccn1` [compound 5], in data set [1] (pH 2.7), the “logP[a]” value is given as 0.80. Besides, in data set [1] (pH 7.8), the “logP[b]” value is reported as 0.91. Moreover, the “efficacy (aphids killed)” value in data set [2] is on record as 90%.
With `CCn1cnc2c(cnn2-c2cccnc2)c1=O` [compound 6, 5-Ethyl-1-(pyridin-3-yl)-1,5-dihydro-4H-pyrazolo[3,4-d]pyrimidin-4-one], the results for the chromatographic logP in data set [1] (setting [3]) and in data set [1] (setting [4]) were 0.98 and 1.15, respectively.
For `Cn1cnc2c(cnn2-c2cccnc2)c1=O` [compound 7], the “logP[a]” value in data set [1] (pH 2.7) worked out at 0.58. In data set [1] (pH 7.8), the “logP[b]” value is 0.82.
`Cn1cnc2c(cnn2-c2cncnc2)c1=O` [compound 8, 5-Methyl-1-(pyrimidin-5-yl)-1,5-dihydro-4H-pyrazolo[3,4-d]pyrimidin-4-one]: the chromatographic logP in data set [1] (setting [3]) and in data set [1] (setting [4]) was 0.55 in each case.
For the compound `CCn1cnc2nn(-c3cccnc3)cc2c1=O` [compound 9], the “logP[a]” value in data set [1] (setting [5]) was determined as 0.80.
Consider `O=c1c2cn(-c3cccnc3)nc2ncn1-c1ccccc1` [compound 10], for which the “logP[a]” value in data set [1] (setting [5]) stood at 1.40. Further, the “efficacy (aphids killed)” value in data set [2] is 90%.
The corresponding values for `O=c1c2cn(-c3ccccc3)nc2ncn1Cc1ncccn1` [compound 11] are 0.63 and 100%.
The corresponding values for `O=c1c2cn(-c3cccnc3)nc2ncn1CC(F)(F)F` [compound 12] are 1.27 and 100%.
In the case of `CC(C)n1cnc2nn(-c3cccnc3)cc2c1=O` [compound 15, 5-Isopropyl-2-(pyridin-3-yl)-2,5-dihydro-4H-pyrazolo[3,4-d]pyrimidin-4-one], the chromatographic logP in data set [1] (setting [3]) turned out to be 1.06; in data set [1] (setting [4]), 1.12. For the same compound, the “efficacy (aphids killed)” value in data set [2] is recorded as 100%.
With `CCn1cnc2nn(-c3cccnc3)cc2c1=O` [compound 16, 5-Ethyl-2-(pyridin-3-yl)-2,5-dihydro-4H-pyrazolo[3,4-d]pyrimidin-4-one], the chromatographic logP came to 0.7 in data set [1] (setting [3]) and 0.84 in data set [1] (setting [4]). For the same compound, the “efficacy (aphids killed)” value in data set [2] is listed as 100%.
Regarding `O=c1c2cn(-c3cccnc3)nc2ncn1CC1CCCO1` (stereo not shown) [compound 17], the “logP[a]” value in data set [1] (setting [5]) came out at 1.07. In data set [1] (setting [6]), the “logP[b]” value was found to be 1.12. In addition, the “efficacy (aphids killed)” value in data set [2] was 100%.
Taken in the same sequence, the figures for `Cn1cnc2nn(-c3cccnc3)cc2c1=O` [compound 18] were 0.45, 0.52 and 100%.
The corresponding values for `CCOC(=O)Cn1cnc2nn(-c3cccnc3)cc2c1=O` [compound 19] are 0.98, 1.09 and 100%.
For `CC(c1ccccn1)n1cnc2nn(-c3cccnc3)cc2c1=O` (stereo not shown) [compound 21], the “logP[a]” value in data set [1] (setting [5]) is 1.13. In addition, the “logP[b]” value in data set [1] (setting [6]) worked out at 1.32. Also, in data set [2], the “efficacy (aphids killed)” value worked out at 90%.
Consider `CN(C)C(=O)Cn1cnc2nn(-c3cccnc3)cc2c1=O` [compound 22], for which the “logP[a]” value in data set [1] (setting [5]) was found to be 0.47. Also, in data set [1] (setting [6]), the “logP[b]” value stood at 0.51. Further, in data set [2], the “efficacy (aphids killed)” value stood at 90%.
Take `CCn1c(C(F)(F)F)nc2nn(-c3cccnc3)cc2c1=O` [compound 32, 5-Ethyl-2-(pyridin-3-yl)-6-(trifluoromethyl)-2,5-dihydro-4H-pyrazolo[3,4-d]pyrimidin-4-one]: the figures for the chromatographic logP in data set [1] (setting [3]) and in data set [1] (setting [4]) were 2.07 and 2.06, respectively.

The values above are taken from patent US9688681B2, “Heterocyclic compounds as pest control agents” (BAYER CROPSCIENCE AKTIENGESELLSCHAFT, priority 2013, dated 2017).
